From ChEMBL document CHEMBL1201862, “PubChem BioAssay data set” (2004)
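Assay format: 96-well plates, 48-hour exposure. The concentration for 50% growth inhibition is given as GI50.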 Activity calls are given as the source filed them. No stated cut-off is given here; in the data, active = GI50 up to about 1.1 µM and inactive = higher.

Assays:
Assay in all cases: growth of human tumour cells (NCI), 48 h
[1] = system: 786-0
[2] = system: A549
[3] = system: ACHN
[4] = system: CCRF-CEM
[5] = system: EKVX
[6] = system: HCC 2998
[7] = system: HL-60
[8] = system: HT-29
[9] = system: KM12
[10] = system: MOLT-4
[11] = system: Malme-3M
[12] = system: NCI-H226
[13] = system: OVCAR-8
[14] = system: SF-268
[15] = system: U-251
[16] = system: RPMI-8226
[17] = system: SK-MEL-5

Measured: GI50

COc1ccc(NC(=O)CC/C(CC(=O)c2ccccc2Cl)=N\Nc2nnc(C)n2N)cc1
inactive: [1] > 100 µM | [2] > 100 µM | [3] > 100 µM | [4] > 100 µM | [5] > 100 µM | [6] > 100 µM | [7] > 100 µM | [8] > 100 µM | [9] > 100 µM | [10] > 100 µM | [11] > 100 µM | [12] > 100 µM | [13] > 100 µM | [14] > 100 µM | [15] > 100 µM

Cn1cnc([N+](=O)[O-])c1Sc1nnnn1C
inactive: [1] 17.6 µM | [2] 99.5 µM | [3] 16.2 µM | [4] 7.46 µM | [5] 18.3 µM | [6] 23.6 µM | [8] 19.4 µM | [9] 56.9 µM | [10] 9.12 µM | [11] 13.2 µM | [12] 44.7 µM | [13] 17.2 µM | [16] 23 µM | [14] 21.5 µM | [17] 17.3 µM | [15] 18 µM

CN(/N=C\c1ccnc2ccccc12)c1ccccc1
inactive: [1] 18.5 µM | [2] 21.6 µM | [3] 31 µM | [4] 10 µM | [5] 9.12 µM | [7] 17.5 µM | [8] 18.9 µM | [9] 19 µM | [10] > 100 µM | [11] 23.8 µM | [13] 38.3 µM | [16] > 100 µM | [14] 56.1 µM | [17] 17.3 µM | [15] 25.8 µM

NC(=O)c1nc(-c2ccc(Cl)c(Cl)c2)nc2ccccc12
inactive: [1] 3.69 µM | [2] > 21.4 µM | [3] > 20.8 µM | [4] > 100 µM | [5] > 41.6 µM | [7] > 100 µM | [8] > 100 µM | [9] > 100 µM | [10] > 100 µM | [11] 4.92 µM | [12] 18 µM | [16] > 21.1 µM | [14] 19.1 µM | [17] > 49.3 µM | [15] > 28 µM

CSc1nnc(COc2ccc(Cl)cc2)o1
inactive: [1] > 100 µM | [2] > 100 µM | [3] > 100 µM | [5] > 100 µM | [8] > 100 µM | [9] > 100 µM | [11] > 100 µM | [13] > 100 µM | [14] > 100 µM | [17] > 100 µM | [15] > 100 µM

O=[N+]([O-])c1cc(/C=N/NS(=O)(=O)c2ccc(F)cc2)c(O)c([N+](=O)[O-])c1
inactive: [1] 41.3 µM | [2] 48 µM | [3] 40.5 µM | [4] 37.6 µM | [5] > 100 µM | [6] > 100 µM | [7] 38.5 µM | [8] 22.3 µM | [9] 21 µM | [10] 21.9 µM | [11] 63.1 µM | [13] 24.8 µM | [16] 27.7 µM | [14] 40.1 µM | [17] 25.7 µM | [15] 23.8 µM

CC1=NN(C(=O)Nc2ccccc2)C(=O)C2CCC(=O)N12 (stereo not drawn)
inactive: [1] > 100 µM | [2] > 100 µM | [3] > 100 µM | [4] > 100 µM | [5] > 100 µM | [6] > 100 µM | [7] > 100 µM | [9] > 100 µM | [10] > 100 µM | [13] > 100 µM | [16] > 100 µM | [14] > 100 µM | [17] > 100 µM | [15] > 100 µM

c1ccc(SC(Sc2ccccc2)=C2CCC2)cc1
inactive: [1] > 100 µM | [2] > 100 µM | [3] > 100 µM | [4] > 100 µM | [5] > 100 µM | [7] > 100 µM | [9] > 100 µM | [10] > 100 µM | [13] > 100 µM | [16] > 100 µM | [14] > 100 µM | [17] > 100 µM | [15] > 100 µM

CN(C(=O)c1ccco1)C(=S)N1CCN(c2ccccc2)CC1
inactive: [1] > 100 µM | [2] > 100 µM | [3] > 100 µM | [4] > 100 µM | [7] > 100 µM | [8] > 100 µM | [9] > 100 µM | [10] > 100 µM | [11] > 100 µM | [12] 71.3 µM | [13] > 100 µM | [16] > 100 µM | [14] > 100 µM | [17] > 100 µM | [15] > 100 µM

COc1ccc(C(=O)C(CC2C(=O)NC(=O)NC2=O)c2ccc(OC)cc2)cc1 (stereo not drawn)
inactive: [1] > 100 µM | [2] > 100 µM | [3] > 100 µM | [4] > 100 µM | [5] > 100 µM | [6] > 100 µM | [7] > 100 µM | [8] > 100 µM | [9] > 100 µM | [10] > 100 µM | [11] > 100 µM | [12] > 100 µM | [13] > 100 µM | [14] > 100 µM | [17] > 100 µM | [15] > 100 µM

CCOC(=O)COc1cccc2occc(=O)c12
inactive: [1] > 100 µM | [2] > 100 µM | [3] > 100 µM | [4] > 100 µM | [5] > 100 µM | [6] > 100 µM | [7] > 100 µM | [8] > 100 µM | [9] > 100 µM | [10] > 100 µM | [11] > 100 µM | [13] > 100 µM | [16] > 100 µM | [14] > 100 µM | [17] > 100 µM | [15] > 100 µM

CCC(C)(C)n1c(C)nc2c1C(=O)c1ccccc1C2=O
inactive: [1] 39.5 µM | [2] 36.5 µM | [3] 32.9 µM | [4] 29.7 µM | [5] 34.1 µM | [6] 45.8 µM | [7] 7.62 µM | [8] 31.6 µM | [9] 23.8 µM | [10] 18.8 µM | [11] 32.2 µM | [12] 40.6 µM | [13] 36.1 µM | [14] 29.6 µM | [17] 15.7 µM | [15] 28.8 µM

COc1cc(C(=O)C/C(CCC(=O)Nc2ccc(Cl)cc2Cl)=N/NC(=O)C(=O)NN)ccc1O
inactive: [1] > 100 µM | [2] > 100 µM | [3] > 100 µM | [4] > 100 µM | [5] 97.7 µM | [6] > 100 µM | [7] > 100 µM | [8] > 100 µM | [9] > 100 µM | [11] > 100 µM | [12] > 100 µM | [13] > 100 µM | [14] > 100 µM | [17] > 100 µM | [15] > 100 µM
